Measurements published in patent publication US20250084056A1, “SUBSTITUTED OXOISOINDOLINYL PIPERIDINE-2,6-DIONE COMPOUNDS” (BRISTOL-MYERS SQUIBB COMPANY, priority 2023, published 2025).

Tests used:
Format in all cases: cell-based
Cyclin E1 = Cyclin E1 (Homo sapiens, UniProt P24864+Q96SW2); assay: Cyclin E1 Cellular Degradation Assay (MSD); design: endogenous in cells; host or cells: OVCAR3; settings: for Ratio of GSPT1 DC50/Cyclin E1 DC50: selectivity for degradation of Cyclin E1 over GSPT1
Method: Culturing cells: On Day 0, OVCAR3 cells were plated at 15,000 cells/well in 40 μL of culture medium (RPMI1640, 20% FBS, 0.01 insulin, 1% Anti/Anti) in a 384 well cell culture plate. Cell cultures were incubated for 24 hours at 37° C. and 5% CO2.
Coating MSD plates: On Day 1, rabbit anti-CCNE1 antibody (Abcam ab33911, 1 μg/mL in DPBS, […]) was dispensed to a Meso Scale Discovery plate (MSD L21XA). The MSD plate was spun briefly to ensure the solution coated the bottom of the well and incubated overnight at 4° C. On Day 2, the plate was washed 3 times with TBS +0.2% TWEEN, blocked for 1 hour with 3% MSD Blocker A (MSD R93AA-1, 30 μL/well), then washed again 3 times with TBS+0.2% TWEEN.
Treating and lysing cells: On Day 1, compounds of interest were dispensed into the cell cultures by acoustic dispensing technology. The cell cultures were then spun at 400 g for 4 minutes to disperse the compounds and incubated at 37° C. and 5% CO2 for 24 hours. After incubation, 40 μL of DPBS was added to the cell cultures to dilute the media. All liquid was gently discarded and immediately replaced with 30 μL of lysis buffer (MSD Tris Lysis buffer (MSD R60TX-2), Halt Protease inhibitor (ThermoFisher 78438), Phosphatase Inhibitor II (Sigma-Aldrich P5726), Phosphatase Inhibitor III (Sigma-Aldrich P0044), 0.02M PMSF (Sigma-Aldrich 7626), 0.1% SDS (VWR E719-100ML)). The plate was then sealed, shaken at 300 rpm at room temperature for 5 minutes, and freeze-thawed for optimum cell lysis.
Collecting data: After thawing, 25 μL of lysate was transferred to a coated MSD plate. The plate was then sealed and shaken at 300 rpm overnight in 4° C. On Day 3, the MSD plate was washed 3 times with TBS+0.2% TWEEN. Mouse anti-CCNE1 antibody (Abcam ab238081, 0.5 μg/mL in 1% MSD Blocker A, 10 μL/well) dispensed to the MSD plate, which was then sealed and shaken at room temperature for 3 hours. After the first antibody incubation, the plate was washed 3 times with TBS+0.2% TWEEN, then goat anti-mouse Sulfo-Tag antibody (MSD R32AC, 1 μg/mL in 1% MSD Blocker A, 10 μL/well) was dispensed to the MSD plate. The plate was sealed again and shaken at room temperature for 1 hour, then washed 3 times with TBS+0.2% TWEEN. After the final wash, 35 μL of 1× Read Buffer (MSD R92TC-1) was added to each well and the data was captured using the MSD plate reader. The reference compound, [2-(2,6-dioxopiperidin-3-yl)-4-methoxy-3-oxo-2,3-dihydro-1H-isoindol-5-yl]methyl N-[4-(3,4-difluorophenoxy)phenyl]carbamate, at […] was used to define […]. Assay results for each compound were reported as DC50, the concentration giving 50% response, and Dmax, the maximum response observed with the compound.

Phospho-Rb (Ser807/811) = assay: Phospho-Retinoblastoma (pRB) Cellular Assay; settings: NIH OVCAR3 cells, 24 hours; for IC50 / Emax: Homo sapiens, OVCAR-3; for IC50: concentration giving 50% response; for Emax: read-out: pRB Ymax
Method: Phospho-Retinoblastoma (pRB) Cellular Assay
NIH OVCAR3 (HTB-161, American Type Culture Collection, Manassas VA) cells were grown up to passage 10 in culture media made up of RPMI (11835-030 Gibco, Grand Island NY), 20% HI FBS (16140-071, Gibco, Grand Island NY), and 0.01 mg/mL insulin from bovine pancreas (I6634-1G, Sigma Aldrich, St. Louis, MO).
The cells were seeded in a 384-well CulturPlate (6007688, Perkin Elmer, Waltham MA) at a density of 10,000 cells/well in 20 μL of the above culture media and incubated overnight at 37° C. and 5% CO2.
The next day, cells were treated using an Echo 650 (Beckman Coulter, Indianapolis IN) acoustic dispenser with 40 nL of compounds dissolved in DMSO at the appropriate serial dilutions (10 mM to […]). Cells were then incubated for 24 hours as above.
After 24 hours elapsed, media was removed from each well and shortly after 20 μL of the following mix was added: 12 μL deionized water, 4 μL lysis buffer, 4 μL of reconstituted antibody mix, and 1:100 phosphatase inhibitor. These components belong to the Phospho-Rb (Ser807/811) Cellular Kit (64RBS807PEY, Perkin Elmer, Waltham MA).
Plates were sealed and incubated away from light at room temperature for at least 4 hours before reading them on an EnVision plate reader (Perkin Elmer, Waltham MA) according to the kit manufacturer's protocol. The reference compound, N-(5-{[(5-tert-butyl-1,3-oxazol-2-yl)methyl]sulfanyl}-1,3-thiazol-2-yl)piperidine-4-carboxamide, at 10 μM was used to define 100% response. Assay results for each compound were reported as IC50, the concentration giving 50% response, and Ymax, the maximum response observed with the compound.

GSPT1 = GSPT1 (Homo sapiens, UniProt P15170+Q96SW2); assay: GSPT1 Cellular Degradation Assay (DF15-GSPT1-ePL); design: expressed in transfected cells; settings: DF15-GSPT1-ePL cells, 20 hours
Text: DF15-GSPT1-ePL was used for intracellular GSPT1 protein degradation detection in form of chemiluminescent signal, which was built on a human DF15 cell line (CVCL_Y429) with conditional co-expression of chimeric GSPT1 (target) and ePL/donor (enhanced ProLabel® by DiscoverX for enzyme fragment complementation with donor-acceptor pairing). The cells used the culture medium in two arrangements for assay and maintenance. During assay, it used Core-RPMI 1640 medium with 10% Fetal Bovine Serum (Heat Inactivated) and 1× Penicillin/Streptomycin; and during passage maintenance, used added ingredients: 0.1 mM NEAA, 1 mM sodium pyruvate, 25 mM Hepes, 0.1% Pluronic F-68, 1× Glutamin, 4 μg/mL Blasticidin (selection agent). Detection was performed on a 1536 well tissue culture plate (Corning #3727) with cells seeded in 3.5 μL core-RPMI 1640 at density of 0.25 million/mL after the pre-titrated test compounds in DMSO on ECHO plate were dispensed onto the assay plate by use of ECHO (liquid handing system via acoustic energy from Labcyte). Assay incubation lasted 20 hours in 37° C. incubator with 5% CO2; then followed by 30 minutes of plate-cooling at room temperature; then detection-reagent-mix was added in 3.5 μL/well with pre-defined proportion of enzyme acceptor, substrate, and lysis buffer. Plate signal reading for luminescence on an EnVision plate reader (PerkinElmer) was conducted after 60 minutes of former step at room temperature. Raw data was collected and processed with Dotmatics (data analyzer) for test compound's potency values. The reference compound, 3-[5-(3,6-dimethoxyisoquinolin-1-yl)-1-oxo-2,3-dihydro-1H-isoindol-2-yl]piperidine-2,6-dione, at […] was used to define 75% response. Assay results for each compound were reported as DC50, the concentration giving 50% response, and Dmax, the maximum response observed with the compound.

[1] = Cyclin E1 cellular degradation, maximum degradation
[2] = maximum response, reference compound at 10 μM = 100%

Sequence of Cyclin E1 (P24864 whole entry): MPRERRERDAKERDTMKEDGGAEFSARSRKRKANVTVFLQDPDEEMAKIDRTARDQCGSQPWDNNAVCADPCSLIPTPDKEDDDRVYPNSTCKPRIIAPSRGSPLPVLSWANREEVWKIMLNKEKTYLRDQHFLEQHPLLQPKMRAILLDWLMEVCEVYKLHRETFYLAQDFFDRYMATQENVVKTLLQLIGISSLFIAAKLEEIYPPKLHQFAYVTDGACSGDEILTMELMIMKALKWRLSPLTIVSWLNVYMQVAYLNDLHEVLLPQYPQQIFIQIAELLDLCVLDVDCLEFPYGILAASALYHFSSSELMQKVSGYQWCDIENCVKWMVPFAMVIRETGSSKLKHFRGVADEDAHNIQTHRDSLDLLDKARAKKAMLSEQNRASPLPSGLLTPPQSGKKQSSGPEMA
Sequence of Cyclin E1 (Q96SW2 whole entry): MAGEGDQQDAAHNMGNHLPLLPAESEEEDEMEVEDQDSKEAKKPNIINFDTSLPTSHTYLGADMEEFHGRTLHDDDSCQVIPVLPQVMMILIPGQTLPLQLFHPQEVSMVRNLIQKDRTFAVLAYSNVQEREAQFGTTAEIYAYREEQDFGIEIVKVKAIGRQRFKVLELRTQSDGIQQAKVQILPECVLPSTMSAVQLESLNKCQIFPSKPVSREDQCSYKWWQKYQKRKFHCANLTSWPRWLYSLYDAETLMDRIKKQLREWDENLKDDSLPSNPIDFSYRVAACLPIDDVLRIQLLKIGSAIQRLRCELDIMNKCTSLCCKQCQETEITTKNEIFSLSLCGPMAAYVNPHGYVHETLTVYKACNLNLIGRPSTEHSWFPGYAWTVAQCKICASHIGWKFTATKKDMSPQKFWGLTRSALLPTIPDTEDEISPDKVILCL
Sequence of Cyclin E1 (Q16531 whole entry partner): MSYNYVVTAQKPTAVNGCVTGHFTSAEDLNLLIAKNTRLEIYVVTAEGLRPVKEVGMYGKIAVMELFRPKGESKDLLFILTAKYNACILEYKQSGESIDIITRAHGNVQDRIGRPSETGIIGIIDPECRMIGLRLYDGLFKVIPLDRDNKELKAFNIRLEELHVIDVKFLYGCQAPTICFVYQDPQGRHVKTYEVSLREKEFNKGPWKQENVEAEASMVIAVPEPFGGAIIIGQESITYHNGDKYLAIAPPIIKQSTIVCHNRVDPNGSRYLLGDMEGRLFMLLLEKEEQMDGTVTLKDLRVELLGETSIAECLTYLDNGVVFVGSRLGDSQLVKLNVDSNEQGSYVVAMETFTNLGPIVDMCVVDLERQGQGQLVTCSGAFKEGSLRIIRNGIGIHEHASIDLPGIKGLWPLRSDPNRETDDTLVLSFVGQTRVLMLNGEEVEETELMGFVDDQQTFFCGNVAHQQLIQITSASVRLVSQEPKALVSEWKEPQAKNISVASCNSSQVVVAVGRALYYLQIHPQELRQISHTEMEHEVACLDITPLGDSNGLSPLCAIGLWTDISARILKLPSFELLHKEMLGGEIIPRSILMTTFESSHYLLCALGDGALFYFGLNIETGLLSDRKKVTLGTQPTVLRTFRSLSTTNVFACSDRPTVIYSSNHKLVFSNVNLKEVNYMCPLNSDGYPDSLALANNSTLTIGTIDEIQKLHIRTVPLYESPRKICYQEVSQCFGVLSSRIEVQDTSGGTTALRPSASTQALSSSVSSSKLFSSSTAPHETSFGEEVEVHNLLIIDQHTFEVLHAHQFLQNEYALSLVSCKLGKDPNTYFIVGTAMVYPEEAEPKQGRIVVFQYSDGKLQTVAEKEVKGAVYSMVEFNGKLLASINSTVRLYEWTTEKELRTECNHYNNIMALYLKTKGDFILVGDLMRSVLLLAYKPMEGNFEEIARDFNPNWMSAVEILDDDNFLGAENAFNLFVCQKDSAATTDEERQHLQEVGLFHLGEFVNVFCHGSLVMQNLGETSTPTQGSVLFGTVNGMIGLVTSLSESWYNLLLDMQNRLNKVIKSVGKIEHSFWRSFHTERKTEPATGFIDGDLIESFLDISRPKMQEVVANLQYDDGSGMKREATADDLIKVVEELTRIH
Sequence of GSPT1 (P15170 whole entry, the tested form may be a part): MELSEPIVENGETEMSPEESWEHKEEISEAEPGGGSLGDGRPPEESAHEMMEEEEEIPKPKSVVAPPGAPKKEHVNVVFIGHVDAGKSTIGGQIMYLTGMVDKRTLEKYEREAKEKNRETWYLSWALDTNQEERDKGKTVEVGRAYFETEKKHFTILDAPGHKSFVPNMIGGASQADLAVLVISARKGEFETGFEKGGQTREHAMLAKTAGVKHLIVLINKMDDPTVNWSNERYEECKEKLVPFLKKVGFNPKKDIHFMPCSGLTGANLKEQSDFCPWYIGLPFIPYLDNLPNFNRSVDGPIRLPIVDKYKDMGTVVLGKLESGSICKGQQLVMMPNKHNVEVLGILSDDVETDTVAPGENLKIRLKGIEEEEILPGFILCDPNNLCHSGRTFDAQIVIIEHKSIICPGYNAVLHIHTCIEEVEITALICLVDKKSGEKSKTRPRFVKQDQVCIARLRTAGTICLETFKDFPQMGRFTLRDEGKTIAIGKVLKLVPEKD
Sequence of GSPT1 (Q96SW2 whole entry, the tested form may be a part): as the sequence (Q96SW2 whole entry) above
Sequence of GSPT1 (Q16531 whole entry partner, the tested form may be a part): as the sequence (Q16531 whole entry partner) above

Row | SMILES | DC50 (Cyclin E1; Cyclin E1 cellular degradation) [nM] | Dmax (Cyclin E1; [1]) [%] | Ratio of GSPT1 DC50/Cyclin E1 DC50 (Cyclin E1) | IC50 (Phospho-Rb (Ser807/811)) [nM] | DC50 (GSPT1) [nM] | Dmax (GSPT1) [%] | Cyclin E1 Dmax (Cyclin E1; [1]) [%] | GSPT1 Dmax (GSPT1) [%] | Emax (Phospho-Rb (Ser807/811); [2]) [%] | pRB Ymax (Phospho-Rb (Ser807/811); [2]) [%]
1 | COc1c(COC(=O)Nc2ccc(Oc3cccc(Cl)c3)cc2)ccc2c1C(=O)N(C1CCC(=O)NC1=O)C2 (stereo not shown) [Example 3, [2-(2,6-dioxopiperidin-3-yl)-4-methoxy-3-oxo-2,3-dihydro-1H-isoindol-5-yl]methyl N-[4-(3-chlorophenoxy)phenyl]carbamate] | 91 | 112 | >153 | 103 | > 14000 | 34 |  |  | 120 | 
2 | COc1c(COC(=O)Nc2ccc(Cc3cccc(F)c3)cc2)ccc2c1C(=O)N(C1CCC(=O)NC1=O)C2 (stereo not shown) [Example 6, [2-(2,6-dioxopiperidin-3-yl)-4-methoxy-3-oxo-2,3-dihydro-1H-isoindol-5-yl]methyl N-{4-[(3-fluorophenyl)methyl]phenyl}carbamate] | 62 | 94 | >226 | 149 | > 14000 | 6 |  |  | 117 | 
3 | O=C1CCC(N2Cc3ccc(COC(=O)Nc4ccc(Oc5ccc(F)c(F)c5)cc4F)c(Oc4ccccc4)c3C2=O)C(=O)N1 (stereo not shown) [Example 69, [2-(2,6-dioxopiperidin-3-yl)-3-oxo-4-phenoxy-2,3-dihydro-1H-isoindol-5-yl]methyl N-[4-(3,4-difluorophenoxy)-2-fluorophenyl]carbamate] | 263 | 105 | >53 | 94 | > 14000 | 11 |  |  | 125 | 
4 | COc1c(COC(=O)Nc2ccc(Cc3cccc(F)c3)cc2F)ccc2c1C(=O)N(C1CCC(=O)NC1=O)C2 (stereo not shown) [Example 20, [2-(2,6-dioxopiperidin-3-yl)-4-methoxy-3-oxo-2,3-dihydro-1H-isoindol-5-yl]methyl N-{2-fluoro-4-[(3-fluorophenyl)methyl]phenyl}carbamate] | 96 | 101 | >146 | 440 | > 14000 | 11 |  |  | 103 | 
5 | [2H]C([2H])([2H])c1ccccc1Oc1ccc(NC(=O)OCc2ccc3c(c2OC)C(=O)N(C2CCC(=O)NC2=O)C3)cc1 (stereo not shown) [Example 92, [2-(2,6-dioxopiperidin-3-yl)-4-methoxy-3-oxo-2,3-dihydro-1H-isoindol-5-yl]methyl N-{4-[2-(^2H3)methylphenoxy]phenyl}carbamate] |  |  | >82 |  |  |  | 114 | 23 |  | 112

Now from value to compound, other results behind:

Row | DC50 (Cyclin E1; Cyclin E1 cellular degradation) [nM] | Dmax (Cyclin E1; [1]) [%] | Ratio of GSPT1 DC50/Cyclin E1 DC50 (Cyclin E1) | IC50 (Phospho-Rb (Ser807/811)) [nM] | DC50 (GSPT1) [nM] | Dmax (GSPT1) [%] | Cyclin E1 Dmax (Cyclin E1; [1]) [%] | GSPT1 Dmax (GSPT1) [%] | SMILES | Emax (Phospho-Rb (Ser807/811); [2]) [%] | pRB Ymax (Phospho-Rb (Ser807/811); [2]) [%]
6 | 199 | 110 | >70 | 133 | > 14000 | 27 |  |  | COc1c(COC(=O)Nc2ccc(Oc3ccc(F)c(F)c3)cc2)ccc2c1C(=O)N(C1CCC(=O)NC1=O)C2 (stereo not shown) [Example 1, [2-(2,6-dioxopiperidin-3-yl)-4-methoxy-3-oxo-2,3-dihydro-1H-isoindol-5-yl]methyl N-[4-(3,4-difluorophenoxy)phenyl]carbamate] | 104 | 
7 | 55 | 113 | >254 | 278 | > 14000 | 7 |  |  | COc1c(COC(=O)Nc2ccc(Oc3cc(F)cc(F)c3)cc2)ccc2c1C(=O)N(C1CCC(=O)NC1=O)C2 (stereo not shown) [Example 13, [2-(2,6-dioxopiperidin-3-yl)-4-methoxy-3-oxo-2,3-dihydro-1H-isoindol-5-yl]methyl N-[4-(3,5-difluorophenoxy)phenyl]carbamate] | 97 | 
8 | 161 | 107 | >87 | 130 | > 14000 | 46 |  |  | COc1c(COC(=O)Nc2ccc(Oc3cccc(F)c3)cc2F)ccc2c1C(=O)N(C1CCC(=O)NC1=O)C2 (stereo not shown) [Example 16, [2-(2,6-dioxopiperidin-3-yl)-4-methoxy-3-oxo-2,3-dihydro-1H-isoindol-5-yl]methyl N-[2-fluoro-4-(3-fluorophenoxy)phenyl]carbamate] | 105 | 
9 | 89 | 100 | >157 | 85 | > 14000 | 13 |  |  | COc1c(COC(=O)Nc2ccc(Cc3ccc(F)c(F)c3)cc2C)ccc2c1C(=O)N(C1CCC(=O)NC1=O)C2 (stereo not shown) [Example 18, [2-(2,6-dioxopiperidin-3-yl)-4-methoxy-3-oxo-2,3-dihydro-1H-isoindol-5-yl]methyl N-{4-[(3,4-difluorophenyl)methyl]-2-methylphenyl}carbamate] | 110 | 
10 | 357 | 105 | >39 | 376 | > 14000 | 42 |  |  | COc1c(COC(=O)Nc2ccc(Oc3ccc(F)c(F)c3)cc2Cl)ccc2c1C(=O)N(C1CCC(=O)NC1=O)C2 (stereo not shown) [Example 46, [2-(2,6-dioxopiperidin-3-yl)-4-methoxy-3-oxo-2,3-dihydro-1H-isoindol-5-yl]methyl N-[2-chloro-4-(3,4-difluorophenoxy)phenyl]carbamate] | 102 | 
